From US11051515B2, “3-acyl-benzamides and their use as herbicides” (Bayer Aktiengesellschaft, priority 2017, dated 2021)

Experiments:
DIGSA [1] = experiment: Pre-emergence action against DIGSA; format: in vivo, Digitaria sanguinalis; conditions: dosage 320 g/ha, scored visually after 3 weeks vs untreated controls
Excerpt: Seeds of monocotyledonous and dicotyledonous weed plants and crop plants are laid out in sandy loam soil in wood-fiber pots and covered with soil. The compounds of the invention, formulated in the form of wettable powders (WP) or as emulsion concentrates (EC), are then applied to the surface of the covering soil in the form of an aqueous suspension or emulsion at a water application rate equating to […], with addition of 0.2% wetting agent. After the treatment, the pots are placed in a greenhouse and kept under good growth conditions for the trial plants. The damage to the test plants is scored visually after a test period of 3 weeks by comparison with untreated controls (herbicidal activity in percent (%): 100% activity=the plants have died, 0% activity=like control plants).

SETVI = experiment: Pre-emergence action against SETVI; format: in vivo, Setaria viridis; conditions: pre-emergence, dosage 320 g/ha, scored visually after 3 weeks vs untreated controls
Summary of the method: (§1)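 Seeds sown in sandy loam in wood-fiber pots and covered with soil. Greenhouse growth; visual damage scored after 3 weeks versus untreated controls (100% = dead, 0% = like control).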

ABUTH [2] = experiment: Pre-emergence action against ABUTH; format: in vivo, Abutilon theophrasti; conditions: pre-emergence, dosage 320 g/ha, scored visually after 3 weeks vs untreated controls
Summary of the method: as §1

AMARE [3] = experiment: Pre-emergence action against AMARE; format: in vivo, Amaranthus retroflexus; conditions: pre-emergence, dosage 320 g/ha, scored visually after 3 weeks vs untreated controls
Summary of the method: as §1

MATIN [4] = experiment: Pre-emergence action against MATIN; format: in vivo, Matricaria inodora; conditions: Dosage 320 g/ha, pre-emergence
Summary of the method: as §1

VIOTR [5] = experiment: Pre-emergence action against VIOTR; format: in vivo, Viola tricolor; conditions: Dosage 320 g/ha, pre-emergence
Summary of the method: as §1

DIGSA [6] = experiment: Post-emergence action against DIGSA; format: in vivo, Digitaria sanguinalis; conditions: dosage 80 g/ha, visual assessment about 3 weeks after treatment vs untreated controls
Protocol: Seeds of monocotyledonous and dicotyledonous weed and crop plants are laid out in sandy loam soil in wood-fiber pots, covered with soil and cultivated in a greenhouse under good growth conditions. 2 to 3 weeks after sowing, the test plants are treated at the one-leaf stage. The compounds of the invention, formulated in the form of wettable powders (WP) or as emulsion concentrates (EC), are then sprayed onto the green parts of the plants in the form of an aqueous suspension or emulsion at a water application rate equating to […], with addition of 0.2% wetting agent. After the test plants have been left to stand in the greenhouse under optimal growth conditions for about 3 weeks, the action of the preparations is assessed visually in comparison to untreated controls (herbicidal action in percent (%): 100% activity=the plants have died, 0% activity=like control plants). […] At the same time, inventive compounds leave Gramineae crops such as barley, wheat, rye, millet/Sorghum, corn or rice virtually undamaged when applied post-emergence, even at high active ingredient dosages. In addition, some substances are also harmless to dicotyledonous crops such as soya, cotton, oilseed rape, sugar beet or potatoes. Some of the compounds according to the invention have high selectivity and are therefore suitable for controlling unwanted vegetation in agricultural crops by the post-emergence method. The data of Tables B18 to B34 below illustrate, in an exemplary manner, the […] herbicidal action of the compounds according to the invention, the herbicidal activity being stated in percent.

ABUTH [7] = experiment: Post-emergence action against ABUTH; format: in vivo, Abutilon theophrasti; conditions: post-emergence, dosage 80 g/ha, visual assessment about 3 weeks after treatment vs untreated controls
Summary of the method: (§2)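 Post-emergence foliar spray on greenhouse plants at the one-leaf stage, using wettable-powder or emulsion-concentrate formulations in water (600 to […], plus 0.2% wetting agent). Damage scored by eye roughly 3 weeks later against untreated plants: 0% = like control, 100% = dead.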

AMARE [8] = experiment: Post-emergence action against AMARE; format: in vivo, Amaranthus retroflexus; conditions: post-emergence, dosage 80 g/ha, visual assessment about 3 weeks after treatment vs untreated controls
Summary of the method: as §2

MATIN [9] = experiment: Post-emergence action against MATIN; format: in vivo, Matricaria inodora; conditions: post-emergence, dosage 80 g/ha, visual assessment about 3 weeks after treatment vs untreated controls
Summary of the method: as §2

STEME [10] = experiment: Post-emergence action against STEME; format: in vivo, Stellaria media; conditions: post-emergence, dosage 80 g/ha
Summary of the method: as §2

ECHCG [11] = experiment: Pre-emergence action against ECHCG; format: in vivo, Echinochloa crus-galli; conditions: pre-emergence, dosage 320 g/ha, scored visually after 3 weeks vs untreated controls
Summary of the method: as §1

STEME [12] = experiment: Pre-emergence action against STEME; format: in vivo, Stellaria media; conditions: Dosage 320 g/ha, pre-emergence
Summary of the method: as §1

ECHCG [13] = experiment: Post-emergence action against ECHCG; format: in vivo, Echinochloa crus-galli; conditions: post-emergence, dosage 80 g/ha, visual assessment about 3 weeks after treatment vs untreated controls
Summary of the method: as §2

PHBPU = experiment: Post-emergence action against PHBPU; format: in vivo, Pharbitis purpurea; conditions: post-emergence, dosage 80 g/ha
Summary of the method: as §2

VIOTR [14] = experiment: Post-emergence action against VIOTR; format: in vivo, Viola tricolor; conditions: post-emergence, dosage 80 g/ha
Summary of the method: as §2

Row | Compound | Pre-emergence action against DIGSA (herbicidal activity) (DIGSA [1]) [%] | SETVI (Table B8, pre-emergence herbicidal activity) (SETVI) [%] | Pre-emergence action against ABUTH (herbicidal activity) (ABUTH [2]) [%] | Pre-emergence action against AMARE (herbicidal activity) (AMARE [3]) [%] | Pre-emergence action against MATIN (MATIN [4]) [%] | Pre-emergence action against VIOTR (VIOTR [5]) [%] | Post-emergence action against DIGSA (herbicidal action in percent) (DIGSA [6]) [%] | Post-emergence action against ABUTH (herbicidal action in percent) (ABUTH [7]) [%] | Post-emergence action against AMARE (herbicidal action in percent) (AMARE [8]) [%] | Post-emergence action against MATIN (herbicidal action in percent) (MATIN [9]) [%] | Post-emergence action against STEME (STEME [10]) | Pre-emergence action against ECHCG (herbicidal activity) (ECHCG [11]) [%] | Pre-emergence action against STEME (STEME [12]) [%] | Post-emergence action against ECHCG (herbicidal action in percent) (ECHCG [13]) [%] | Post-emergence action against PHBPU (PHBPU) | Post-emergence action against VIOTR (VIOTR [14])
1 | CCCn1nnnc1NC(=O)c1ccc(C(F)(F)F)c(C(=O)C2CCC2)c1Cl [3-153] | 100 | 80 | 100 | 100 | 90 | 100 | 80 | 100 | 100 | 100 | 100 | – | – | – | – | –
2 | CCCn1nnnc1NC(=O)c1ccc(C(F)(F)F)c(C(=O)C2CCC2)c1SC [3-280] | 100 | 100 | 100 | 100 | 90 | 100 | 80 | 100 | 100 | 90 | 100 | 80 | 100 | 80 | 80 | 80
